# Measured values from US20060025328A1, “Compositions suitable for controlled release of the hormone GnRH and its analogs” (priority 1997, published 2006).
# Tested on: LH
# Assay: LH concentrations in synchronized dairy heifers, Example 6
# Format: in vivo
# Settings: GnRH (100 μg) positive control
# Protocol: Experimental formulations were prepared by weighing and mixing SAIB, solvent and deslorelin acetate (DA) to give a final concentration of 25 μg/ml. The SAIB: diluting solvent composition was:SAIB/propylene carbonate 70:30 w/w). Experimental DA Treatments were sterilized using gamma radiation. 30 healthy cyclic dairy heifers weighing about 750-800 lbs (340-364 kg) were used. This study was designed as a parallel group design. All heifers were synchronized using pretreatment with 100 μg GnRH (Cystorellin, Merial, Ltd., Islin, NJ) on day -7 followed by 25 mg PGF2α (Lutalyse Pharmacia-Upjohn Co. Kalamazoo, Mich.) treatment one week later. Forty eight hours after PGF2α treatment heifers received saline (negative controls), Cystorellin ([…]; positive controls) or Deslorelin-SABER (DA-slow delivery preparation; at 12.5, 25, 50 or 100 μg intra-muscular). Blood samples were collected by veni-puncture through shaved and aseptic-swabbed sites at -48, 0, 0.5, 1, 2, 4, 6, 12, 18, 24, 36, and 48 hours after treatment for LH analysis. […] were randomly assigned to one of 6 blinded treatment groups (n=5/group) to avoid interpretation bias.
substance,measurement,value
"GnRH: GnRH (Cystorellin, Merial, Ltd.), positive control (QHWSYGLRPG; Gonadoliberin-1; UniProt P01148 24-33, looked up)",LH concentration at peak (average),22.3 ng/mL
same,time of peak LH post-treatment,1 h
